Assay results from US20080045486A1, “OCULAR ADMINISTRATION OF TESTOSTERONE” (priority 2006, published 2008).

Tests used:
[1] = Safety and pharmacokinetics study of testosterone ophthalmic solutions for up to 14 days in postmenopausal women; format: in vivo, human; details: for equivalent absorbed daily dose: assuming production rate 0.125 mg/day; for median Cmax of serum testosterone concentration: each eye twice daily, day 13, healthy postmenopausal women
Procedure: A clinical study entitled “A Single-Center, Double Masked, Parallel, Dose-Ranging, Vehicle Controlled Study Evaluating the Safety and Pharmacokinetics of Testosterone (0.03%, 0.1%, 0.3%, and 0.6%) Ophthalmic Solutions for up to 14 Days in Postmenopausal Women” was conducted to determine the effectiveness of the ocular administration of testosterone. This study was a randomized, single-center, double-masked, parallel-group study of five treatment groups, with each subject acting as their own baseline control for serum testosterone concentrations. Subjects received testosterone ophthalmic solution 0.03%, 0.1%, 0.3%, 0.6% or vehicle ophthalmic solution in each eye twice daily for 14 days. Each subject had blood withdrawn for the measurement of serum testosterone concentrations. On day 13, blood samples were taken prior to the morning dose (time 0), and at 5, 10, 20, 30, and 45 minutes, 1, 2, 4, 6, 8, and 12 hours post-dose. On day −1, blood samples were taken at the same time as day 13 to evaluate the baseline serum testosterone levels. On days −6, 7, 14, and 27, one blood sample was taken at the same time as day 13 predose draw to evaluate the trough serum testosterone levels (there were no dosing on days −6, −1, and 27). […] Serum testosterone concentrations were assayed using a validated double antibody radioimmunoassay method with a lower limit of quantitation (LLOQ) at 29 pg/mL or 2.9 ng/dL.

[2] = 16-week dose-ranging study of testosterone ophthalmic solutions in patients with keratoconjunctivitis sicca, serum pharmacokinetics; format: in vivo, human; details: for increase of serum testosterone concentration over the endogenous baseline / concentration at 10 min: 10 minutes after dosing; for increase of serum testosterone concentration over the endogenous baseline: male patients; for concentration at 10 min: human, serum, other: ophthalmic solution, eye drop, one drop twice daily, female patients, baseline approximately 20 ng/dL
Procedure: Another clinical study entitled “A Multi-Center, Parallel, Randomized, Double-Masked, Vehicle-Controlled, Dose-Ranging Study to Evaluate the Safety, Tolerability and Efficacy of Testosterone 0.01%, 0.1%, and 0.3% Ophthalmic Solutions Administered Twice Daily for 16 weeks in Patients with Keratoconjunctivitis Sicca (KCS)” was conducted to determine the effectiveness of the ocular administration of testosterone in both women and men. This study was a randomized, multi-center, double-masked, parallel-group study of three treatment groups and one vehicle group. Patients were randomized to either 0.01%, 0.1%, 0.3% testosterone or vehicle of 0.3% testosterone ophthalmic solution. In the treatment phase, patients were instructed to instill one drop of the randomly assigned masked treatment twice daily (in the morning upon waking and before bedtime) for 16 weeks. Data from 135 patients (100 females and 35 males) were included in the pharmacokinetic data analysis. A single blood sample (20 mL) was taken from each patient pre-dose and at 10 minutes post dose on day 0, weeks 1, 4, 8, 12, and 16 for the determination of serum testosterone, dihydrotestosterone, 3-alpha-androstanediol glucuronide and sex hormone binding globulin concentrations. Serum concentrations of testosterone and dihydrotestosterone were determined by a validated gas chromatography-mass spectrometry (GC-MS) method with a quantitation range for DHT of 0.1 to 100 ng/dL and for testosterone of 1.0 to 1000 ng/dL. Serum concentrations of 3-alpha-androstanediol-glucuronide were quantitated by a validated radioimmunoassay method with a range of quantitation from 0.800 to 100 ng/mL, and serum concentrations of sex hormone binding globulin were determined using a validated two-site immunoradiometric assay (IRMA) method with a range of quantitation of 5 to 320 nmol/L for a 1:100 diluted sample.

In the case of C[C@]12CC[C@H]3[C@@H](CCC4=CC(=O)CC[C@@]43C)[C@@H]1CC[C@@H]2O [testosterone, (17β)-17-Hydroxyandrost-4-en-3-one], the “equivalent absorbed daily dose” value ([1]; 0.03% formulation BID both eyes) is reported as 0.024 mg, the “average increase of serum testosterone level” value (from here on “average increase”) ([1]; 0.03% formulation, 50 μL BID to both eyes (0.06 mg/day)) is reported as 3.8 ng/dL and the “median Cmax of serum testosterone concentration” value (“median Cmax” below) ([1]; 0.03% ophthalmic solution) is reported as 93.5 ng/dL. For the same molecule, the “equivalent absorbed daily dose” value ([1]; 0.1% formulation BID both eyes) was 0.094 mg, the “average increase” value ([1]; 0.1% formulation, 50 μL BID to both eyes (0.2 mg/day)) was 15 ng/dL and the “median Cmax” value ([1]; 0.1% ophthalmic solution) was 193 ng/dL. The “equivalent absorbed daily dose” value ([1]; 0.3% formulation BID both eyes) was 0.15 mg, the “average increase” value ([1]; 0.3% formulation, 50 μL BID to both eyes (0.6 mg/day)) was 24 ng/dL and the “median Cmax” value ([1]; 0.3% ophthalmic solution) was 237 ng/dL. The “equivalent absorbed daily dose” value ([1]; 0.6% formulation BID both eyes) was 0.31 mg, the “average increase” value ([1]; 0.6% formulation, 50 μL BID to both eyes (1.2 mg/day)) was 49 ng/dL and the “median Cmax” value ([1]; 0.6% ophthalmic solution) was 457 ng/dL. For the same molecule, the “time for serum testosterone concentration to return to the baseline level” value ([1]; after dosing of testosterone ophthalmic solution) was 12 h, the “fraction of the peak serum level gone” value ([1]; in 2 hours after ophthalmical dosing) was “about 90%” and the “increase of serum testosterone concentration over the endogenous baseline” value ([2]; 0.1% solution) was 13%. For the same molecule, the “increase of serum testosterone concentration over the endogenous baseline” value ([2]; 0.3% solution) was 36%, the “safety concern from serum pharmacokinetic data” value ([2]; 4 month dosing period, 0.01%, 0.1% and 0.3% dose levels) was “did not indicate a safety concern” and the concentration at 10 min ([2]; 0.01% solution) was 0.35 ng/mL. The concentration at 10 min ([2]; 0.1% solution) was 2 ng/mL and the concentration at 10 min ([2]; 0.3% solution) was 3.5 ng/mL.
